Measured values taken from patent publication US20020055541A1, “Compositions containing hypotriglyceridemically active stilbenoids” (Shaman Pharmaceuticals, Inc., priority 2000, published 2002).

Experiments:
[1] = reported by Inamori et al., Chem. Phar. Bull. 33(7):2904-09 (1985); cited from earlier work
[2] = reported by Arichi et al., Chem. Pharm. Bull. 30(5) 1766-1770 (1982); cited from earlier work
[3] = Food consumption in fat fed, STZ treated rats; format: in vivo, rat; conditions: 250 mg/kg q.d., FIG. 4
Description: (§1) FIG. 4 is a line graph showing the mean food consumption (mg) in fat fed, STZ treated rats administered with GELUCIRE™ vehicle only; and 3-hydroxy-4-(3-methyl-2-butenyl)-5-methoxystilbene-2-carboxylic acid (Compound A). -O- represents vehicle; and -▪- represents Compound A administered at 250 mg/kg q.d. Animals were administered the vehicle and compounds at 24, 48, 72 and 96 h, and […] were measured at 0, 30, 51, 54, 75 and 80 hours after the oral administration. All data points N=8. *P<0.05 (analysis of variance (ANOVA), one factor).
(§2) Male Sprague Dawley rats arrival from Charles River Laboratories, Hollister, Calif., were fed a high fat (20% by weight) diet (TD 78463) obtained from Harlan Teklad, Madison, Wis., which was stored at 4° C. prior to use. Administration of a high fed diet is a well-known method of inducing hypertriglyceridemia in rats.
(§3) Compound A formulations were prepared fresh daily. The appropriate amount of Compound A in GELUCIRE™ was administered by oral gavage at a volume of 2.5 ml/kg of body weight. Animals were fasted at 8:00 am each day.

[4] = Body weight in fat fed, STZ treated rats; format: in vivo, rat; conditions: 250 mg/kg q.d., FIG. 3
Description: as §1, with “FIG. 3” for “FIG. 4”, “mean body weight” for “mean food consumption”
as §2, §3

[5] = test system: fat fed, STZ treated male Sprague Dawley rats; experiment: Serum triglyceride levels in fat-fed STZ treated rats (model of hypertriglyceridemia); format: in vivo, rat
Text: This example illustrates the effectiveness of the stilbenoids of formula (I) in reducing serum triglyceride levels in fat-fed STZ treated male Sprague Dawley rats, i.e., an art-recognized model of hypertriglyceridemia.
This example illustrates the effectiveness of the stilbenoids of formula (I), e.g. longistyline A-2-carboxylic acid (Compound A) in reducing serum triglyceride levels in fat fed, STZ treated male Sprague Dawley rats, i.e., an art recognized model of hypertriglyceridemia. […]
Blood samples from tail snips bleeds were collected six hours after the dose on day one, and three (3) and six (6) hours after the administration of the dose on days 2 through 4 into M brand (Becton Dickinson, Franklin Lakes, NJ) serum separator tubes, and centrifuged at 12,000 rpm for 10 minutes. Serum was removed and triglyceride levels were measured using enzymatic […] methods (M. W. McGowan, et al., Clin. Chem. 29, 538 (1983) and P Trinder, Ann. Clin. Biochem. 6, 24 (1969)) using Sigma Diagnostic Kits, Sigma Chemical Company, St. Louis, Mo.
Triglyceride levels are expressed as the mean +SEM. Data were analyzed by one-way analysis of variance (ANOVA), followed by post-hoc Fisher's protected least squares difference (PLSD) tests. […]

Compound: Oc1cc(O)cc(C=Cc2ccc(O)c(O)c2)c1 [3,3′,4,5′-tetrahydroxystilbene]
- Antifungal activity [1]: strong

Compound: OC[C@H]1O[C@@H](Oc2cc(O)cc(/C=C/c3ccc(O)cc3)c2)[C@H](O)[C@@H](O)[C@@H]1O [Piceid, 3,4′,5-trihydroxystilbene-3-O-β-D-glucopyranoside]
- Liver lipid levels [2]: lower
- Serum triglyceride levels [2]: lower

Compound: COc1cc(/C=C/c2ccccc2)c(C(=O)O)c(O)c1CC=C(C)C [Compound A, 3-hydroxy-4-(3-methyl-2-butenyl)-5-methoxystilbene-2-carboxylic acid]
- Food intake (daily mean food consumption) [3]: not effected by the treatments
- Gain in rat body weight over the course of treatment [4]: normal and similar among the treatment groups
- Serum triglyceride (TG) levels vs vehicle only, at each of the time points ([5]; 250 mg/kg body weight q.d. oral gavage in GELUCIRE vehicle, fat fed STZ rats, N=8, p<0.05, FIG. 2): significantly lower
- Mean TG levels vs GELUCIRE vehicle group, compared at individual sampling times ([5]; 250 mg/kg body weight q.d., from day 2 through the end of treatment): significantly lower

Compound: OC[C@H]1OC(Oc2c(O)cc(O)cc2C=Cc2ccc(O)cc2)[C@H](O)[C@@H](O)[C@@H]1O (stereo partly drawn) [2,3,5,4′-tetrahydroxy stilbene-2-O-D-glucoside]
- Serum triglyceride levels [2]: reduce
